Test results reported in US10456389B2, “Extended release nicotinamide formulation” (Ferring B.V., priority 2013, dated 2019).
Values after ≈ are worked out from the molar mass of the structure shown.

Columns and labels:
[1] = Release testing, USP paddle apparatus, purified water, UV at 260 nm; type: physicochemical; conditions: raw material, 0.2 g in 100 ml water; FIG. 1
Method: Dissolution experiments were performed in a Sotax AT7 Dissolution apparatus, USP paddle.
All assays were performed in a Shimadzu UV-1700 spectrophotometer.
Release testing was performed in a USP paddle apparatus using 500 ml purified water as release medium and operated at 100 rpm. The results were quantified by a Shimadzu spectrophotometer at 260 nm after dilution 1:50.
To assess whether the ethylcellulose film coating was able to delay the release of nicotinamide, the release from the coated 95% granules (RD1302-2-C1) was tested and compared to the release from the raw material. Nicotinamide from the raw material (0.2 g in 100 ml water) was dissolved very quickly and within 5 minutes. […] Release of the remaining nicotinamide started later than 30 minutes, and after 3 hours 85% had been released. This means that release of nicotinamide can be released over 3 hours by applying an ethylcellulose film.

[2] = cited from earlier work

- Time until dissolved [1]: ≤ 5 min
Compound: NC(=O)c1cccnc1 [Nicotinamide]
- Solubility in 96% ethanol ([2]; 96% ethanol): 660 mg/mL (≈ 5400 mM)
- Solubility in water ([2]; water, 20° C.): 690 mg/mL (≈ 5650 mM)
